Where “and” joins values, the source holds several entries; their conditions need not be identical. Equal values may be shown once. Toxic doses and inconclusive results are not listed.
Test system: BDF1 mice, P388 leukemia ip, median survival T/C
Experiment: NCI In Vivo Anticancer Drug Screen. Data for tumor model P388 Leukemia (intraperitoneal) in B6D2F1 (BDF1) mice
Conditions: endpoint: median survival time, higher = longer survival
Summary of the method: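 In tumour-bearing mice, survival after compound treatment is set against the vehicle group and given as a quotient.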

[1] = dose: 50.0 mg/kg/injection, schedule: Q01DX009 (ip), vehicle: Klucel (hydroxypropylcellulose) (HPC)
[2] = dose: 100.0 mg/kg/injection, schedule: Q01DX009 (ip), vehicle: Klucel (hydroxypropylcellulose) (HPC)
[3] = dose: 50.0 mg/kg/injection, schedule: Q01DX009 (ip), vehicle: saline with Tween-80
[4] = dose: 100.0 mg/kg/injection, schedule: Q04DX003 (ip), vehicle: saline with Tween-80
[5] = dose: 200.0 mg/kg/injection, schedule: Q04DX003 (ip), vehicle: saline with Tween-80
[6] = dose: 400.0 mg/kg/injection, schedule: Q04DX003 (ip), vehicle: saline with Tween-80
[7] = dose: 100.0 mg/kg/injection, schedule: Q01DX009 (ip), vehicle: saline with Tween-80
[8] = dose: 200.0 mg/kg/injection, schedule: Q01DX009 (ip), vehicle: saline with Tween-80
[9] = dose: 100.0 mg/kg/injection, schedule: Q04DX003 (ip), vehicle: Klucel (hydroxypropylcellulose) (HPC)
[10] = dose: 200.0 mg/kg/injection, schedule: Q04DX003 (ip), vehicle: Klucel (hydroxypropylcellulose) (HPC)
[11] = dose: 400.0 mg/kg/injection, schedule: Q04DX003 (ip), vehicle: Klucel (hydroxypropylcellulose) (HPC)
[12] = dose: 25.0 mg/kg/injection, schedule: Q01DX009 (ip), vehicle: Klucel (hydroxypropylcellulose) (HPC)

In the case of `CCOC(=O)/C(O)=C(\C=N\C(N)=O)C(=O)OCC`, the T/C (dose: 50.0 mg/kg/injection, schedule: Q04DX003 (ip), vehicle: saline sonified) is reported as 100 % of control, the T/C (dose: 100.0 mg/kg/injection, schedule: Q04DX003 (ip), vehicle: saline sonified) is reported as 105 % of control and the T/C (dose: 200.0 mg/kg/injection, schedule: Q04DX003 (ip), vehicle: saline sonified) is reported as 110 % of control.
With `COC(=O)C(CO)NC(=O)OCc1ccccc1` (stereo not given) the T/C (dose: 12.5 mg/kg/injection, schedule: Q01DX009 (ip), vehicle: water) was 100 % of control, the T/C (dose: 25.0 mg/kg/injection, schedule: Q01DX009 (ip), vehicle: water) was 100 % of control and the T/C (dose: 50.0 mg/kg/injection, schedule: Q01DX009 (ip), vehicle: water) was 96 % of control. The T/C (dose: 100.0 mg/kg/injection, schedule: Q01DX009 (ip), vehicle: water) was 96 % of control and the T/C (dose: 200.0 mg/kg/injection, schedule: Q01DX009 (ip), vehicle: water) was 100 % of control.
`Cn1c(=O)c2nc(-c3ccc(Cl)c(Cl)c3)c(-c3ccc(Cl)c(Cl)c3)nc2n(C)c1=O` was tested, and the T/C (dose: 3.13 mg/kg/injection, schedule: Q01DX001 (ip), vehicle: saline with Tween-80) was 100 % of control, the T/C (dose: 6.25 mg/kg/injection, schedule: Q01DX001 (ip), vehicle: saline with Tween-80) was 101 % of control and the T/C (dose: 12.5 mg/kg/injection, schedule: Q01DX001 (ip), vehicle: saline with Tween-80) was 99 % of control. The T/C (dose: 25.0 mg/kg/injection, schedule: Q01DX001 (ip), vehicle: saline with Tween-80) was 90 % of control and 101 % of control, the T/C (dose: 50.0 mg/kg/injection, schedule: Q01DX001 (ip), vehicle: saline with Tween-80) was 107 % of control and the T/C (dose: 100.0 mg/kg/injection, schedule: Q01DX001 (ip), vehicle: saline with Tween-80) was 87 % of control. For the same molecule, the T/C (dose: 400.0 mg/kg/injection, schedule: Q01DX001 (ip), vehicle: saline with Tween-80) was 96 % of control.
With `CCC(C(N)C(=O)O)C(F)(F)F` (stereo not given) the T/C (dose: 50.0 mg/kg/injection, schedule: Q01DX005 (ip), vehicle: saline) was 103 % of control, the T/C (dose: 100.0 mg/kg/injection, schedule: Q01DX005 (ip), vehicle: saline) was 108 % of control and the T/C (dose: 200.0 mg/kg/injection, schedule: Q01DX005 (ip), vehicle: saline) was 103 % of control.
In the case of `COc1ccccc1C(=O)NS(=O)(=O)c1ccc(Cl)cc1`, the T/C [1] is reported as 105 % of control, the T/C [2] is reported as 110 % of control and the T/C (dose: 200.0 mg/kg/injection, schedule: Q01DX009 (ip), vehicle: Klucel (hydroxypropylcellulose) (HPC)) is reported as 120 % of control.
For `[NH-]C(CCC(N)=O)C(=O)O.[NH-]C(CCC(N)=O)C(=O)O.[Zn+2]` (stereo not given), the T/C (dose: 12.5 mg/kg/injection, schedule: Q01DX009 (ip), vehicle: saline with Tween-80) was 91 % of control, the T/C (dose: 25.0 mg/kg/injection, schedule: Q01DX009 (ip), vehicle: saline with Tween-80) was 108 % of control and the T/C [3] was 121 % of control.
`COc1ccc(C=Nc2ccccc2)cc1` was tested, and the T/C [4] was 100 % of control, the T/C [5] was 100 % of control and the T/C [6] was 100 % of control.
For `O=C(O)Cc1nc(Cl)ccc1Cl`, the T/C [3] was 106 % of control, the T/C [7] was 100 % of control and the T/C [8] was 92 % of control.
For `CC(CC(=N)N)NC(=O)C1CCC(N)=N1` (stereo not given), the T/C (dose: 150.0 mg/kg/injection, schedule: Q01DX009 (ip), vehicle: saline) was 98 % of control and the T/C (dose: 300.0 mg/kg/injection, schedule: Q01DX009 (ip), vehicle: saline) was 98 % of control.
For `C[N+](C)(CCc1ccccc1)CC(O)COc1ccccc1` (stereo not given), the T/C (dose: 9.5 mg/kg/injection, schedule: Q01DX009 (ip), vehicle: Klucel (hydroxypropylcellulose) (HPC)) was 96 % of control, the T/C (dose: 9.5 mg/kg/injection, schedule: Q04DX003 (ip), vehicle: Klucel (hydroxypropylcellulose) (HPC)) was 95 % of control and the T/C (dose: 19.0 mg/kg/injection, schedule: Q01DX009 (ip), vehicle: Klucel (hydroxypropylcellulose) (HPC)) was 96 % of control. For the same molecule, the T/C (dose: 19.0 mg/kg/injection, schedule: Q04DX003 (ip), vehicle: Klucel (hydroxypropylcellulose) (HPC)) was 95 % of control and the T/C (dose: 38.0 mg/kg/injection, schedule: Q04DX003 (ip), vehicle: Klucel (hydroxypropylcellulose) (HPC)) was 100 % of control.
For `C/C(=C1/c2ccccc2-c2n[nH]c(C)c21)S(=O)(=O)O`, the T/C [4] was 104 % of control, the T/C [5] was 100 % of control and the T/C [6] was 100 % of control.
In the case of `COC(=O)c1cc(Cl)ccc1OCC(=O)Nc1ccc([N+](=O)[O-])cc1`, the T/C [9] is reported as 95 % of control and 100 % of control, the T/C [10] is reported as 104 % of control and the T/C [11] is reported as 87 % of control and 104 % of control.
With `CCCCCCC(=O)NC1=C(N2CC2)C(=O)C(NC(=O)CCCCCC)=C(N2CC2)C1=O` the T/C [12] was 182 % of control, the T/C (dose: 25.0 mg/kg/injection, schedule: Q01DX009 (ip), vehicle: saline) was 234 % of control and the T/C [1] was 208 % of control. The T/C (dose: 50.0 mg/kg/injection, schedule: Q01DX009 (ip), vehicle: saline) was 241 % of control, the T/C (dose: 66.0 mg/kg/injection, schedule: Q04DX003 (ip), vehicle: saline with Tween-80) was 166 % of control and the T/C [2] was 154 % of control. The T/C (dose: 100.0 mg/kg/injection, schedule: Q01DX009 (ip), vehicle: saline) was 328 % of control, the T/C [4] was 191 % of control and 200 % of control and the T/C (dose: 150.0 mg/kg/injection, schedule: Q04DX003 (ip), vehicle: saline with Tween-80) was 200 % of control. The T/C (dose: 200.0 mg/kg/injection, schedule: Q01DX009 (ip), vehicle: saline) was 107 % of control, the T/C [5] was 154 % of control and the T/C [6] was 95 % of control.
`CCC[CH2][Sn-]([CH2]CCC)([CH2]CCC)[O]c1cc(Cl)c(Cl)cc1Cl` was tested, and the T/C (dose: 0.37 mg/kg/injection, schedule: Q01DX009 (ip), vehicle: Klucel (hydroxypropylcellulose) (HPC)) was 100 % of control, the T/C (dose: 0.75 mg/kg/injection, schedule: Q01DX009 (ip), vehicle: Klucel (hydroxypropylcellulose) (HPC)) was 100 % of control and the T/C (dose: 1.5 mg/kg/injection, schedule: Q01DX009 (ip), vehicle: Klucel (hydroxypropylcellulose) (HPC)) was 100 % of control. For the same molecule, the T/C (dose: 3.0 mg/kg/injection, schedule: Q01DX009 (ip), vehicle: Klucel (hydroxypropylcellulose) (HPC)) was 110 % of control and the T/C (dose: 6.0 mg/kg/injection, schedule: Q01DX009 (ip), vehicle: Klucel (hydroxypropylcellulose) (HPC)) was 89 % of control.
In the case of `C1SCSCS1`, the T/C (dose: 75.0 mg/kg/injection, schedule: Q01DX009 (ip), vehicle: Klucel (hydroxypropylcellulose) (HPC)) is reported as 118 % of control, the T/C (dose: 100.0 mg/kg/injection, schedule: Q01DX001 (ip), vehicle: other) is reported as 109 % of control and the T/C [9] is reported as 100 % of control. For the same molecule, the T/C (dose: 150.0 mg/kg/injection, schedule: Q01DX009 (ip), vehicle: Klucel (hydroxypropylcellulose) (HPC)) was 100 % of control, the T/C (dose: 200.0 mg/kg/injection, schedule: Q01DX001 (ip), vehicle: other) was 90 % of control and the T/C [10] was 109 % of control. The T/C (dose: 300.0 mg/kg/injection, schedule: Q01DX009 (ip), vehicle: Klucel (hydroxypropylcellulose) (HPC)) was 113 % of control, the T/C (dose: 400.0 mg/kg/injection, schedule: Q01DX001 (ip), vehicle: other) was 100 % of control and the T/C [11] was 113 % of control.
`CC(C)(C#N)N=NC(C)(C)C#N` was tested, and the T/C (dose: 12.5 mg/kg/injection, schedule: Q01DX009 (ip), vehicle: Klucel (hydroxypropylcellulose) (HPC)) was 95 % of control, the T/C [12] was 90 % of control and the T/C [1] was 90 % of control.
In the case of `COC(=O)C(CCSC)NC(=O)CNC(=O)OC(C)(C)C` (stereo not given), the T/C (dose: 50.0 mg/kg/injection, schedule: Q01DX005 (ip), vehicle: saline with Tween-80) is reported as 100 % of control, the T/C (dose: 100.0 mg/kg/injection, schedule: Q01DX005 (ip), vehicle: saline with Tween-80) is reported as 105 % of control and the T/C (dose: 200.0 mg/kg/injection, schedule: Q01DX005 (ip), vehicle: saline with Tween-80) is reported as 102 % of control.
`COc1ccc(N=Cc2ccc3c(c2)OCO3)cc1` was tested, and the T/C [3] was 98 % of control, the T/C [7] was 100 % of control and the T/C [8] was 105 % of control. The T/C (dose: 400.0 mg/kg/injection, schedule: Q01DX009 (ip), vehicle: saline with Tween-80) was 98 % of control.
For `CCCN(CCC)CC(O)c1cc(C(F)(F)F)nc2c(C(F)(F)F)cccc12` (stereo not given), the T/C [3] was 103 % of control, the T/C [7] was 100 % of control and the T/C [8] was 97 % of control.
`O=C1Nc2ccccc2S/C1=C\c1ccc(C(F)(F)F)cc1` was tested, and the T/C [3] was 115 % of control, the T/C [7] was 100 % of control and the T/C [8] was 110 % of control.
